According to paper PMC5700124 (Scientific Reports, 2017):
Values joined by “and” are separate entries in the source; they are usually repeats but may differ in a detail not shown here. Identical values can stand only once. Like-named read-outs stand apart in the source and are kept apart here.

Tests used:
[1] = tested on: α2 adrenoceptor subtypes; design: method as in PMID 7908054; conditions: cited from earlier work
[2] = design: method as in Jakobsen et al.[14]; conditions: pigs; challenge, compared with yohimbine; ref Jakobsen et al.[14]; cited from earlier work
[3] = tested on: [^11C]mirtazepin binding in porcine brain; design: method as in Smith et al.[34]; conditions: ref Smith et al.[34], cited from earlier work
[4] = tested on: α2 adrenoceptors; design: method as in Jakobsen and colleagues[14]; conditions: porcine brain; low dose 0.15 mg/kg vs 0.7 mg/kg; ref Jakobsen and colleagues[14]; cited from earlier work
[5] = biological target: α2 adrenoceptor; conditions: parieto-occipital cortex, pH 7.5, 25.0 °C, mg^2+ 1 mM, blocking of NS adrenaline 10 μM, cited from earlier work
[6] = biological target: α2 adrenoceptor; conditions: cerebral cortex, pH 7.4, 25.0 °C, mg^2+ 0, blocking of NS phentolamine 10 μM, cited from earlier work
[7] = biological target: α2 adrenoceptor; design: method as in Rout et al.[32]; conditions: cortex, pH 7.0, 25.0 °C, blocking of NS noradrenaline 100 μM, ref Rout et al.[32], cited from earlier work
[8] = tested on: α2 adrenoceptors; experiment: Eadie-Hofstee Plot of PET binding potentials (receptor density Bmax and KD in vivo); design: species or system rat
From the text: The values of BPND enabled us to determine the α2 adrenoceptor density in vivo. As presented in Fig. 4A, we estimated values of receptor density, Bmax, and receptor affinity (1/KD) by means of Eadie-Hofstee plots. We calculated the bound quantity according to eq. 2, based on the information of the BPND and specific activity. We found the greatest receptor densities in thalamus, caudate putamen, and cortical areas, with the lowest densities in cerebellum and olfactory bulb as presented in Fig. 4B. The regional receptor densities are listed in detail in Table 2 and specific activity in Table 3.
We derived the present method from well-known principles of kinetics. We identified the following six steps to the determination of binding parameters of radioligands that achieve receptor occupancy. […] The variable B is the bound quantity of the ligand, and BPND is the binding potential of the radioligand at the specific degree of occupancy. To solve the equation of the Eadie-Hofstee plot for the two parameters, it is necessary to know the bound quantities of the ligand and the binding potentials in at least two conditions of different occupancy. The bound quantity is related to the binding potential by the relationship,2 B=M(BPND/1+BPND), where M is the total mass of the ligand per unit volume of brain tissue, calculated from the known specific activity of the radioligand.
The sixth and final step was the graphical solution to the Eadie-Hofstee Plot of eq. (1) (Eadie 1952, Hofstee 1952), where B is the bound quantity and BPND is the binding potential of ligands. We calculated the bound quantity from the relationship described by eq. 2.

[9] = tested on: plasma proteins; conditions: in the circulation; cited from earlier work
[10] = tested on: α2 adrenoceptors; experiment: PET of [^11C]yohimbine binding in rat brain at baseline and at challenge with unlabeled yohimbine; conditions: for Volumes of Distribution, VT, BASE: baseline; for Volumes of Distribution, VT, BASE / Volumes of Distribution, VT, COLD: individual rats 1-5; for Volumes of Distribution, VT, COLD: challenge with unlabeled yohimbine 0.3 mg/kg i.v.
[11] = tested on: α2 adrenoceptors; conditions: cited from earlier work

## COC1(C2=NCCN2)COc2ccccc2O1 (stereo not shown) [RX821002]
[1]
  affinity to α2 adrenoceptor subtypes: higher affinity to α2A and α2C than to α2B
[2]
  effect on CBF: opposite effect
[3]; 0.1 mg/kg
  reduction of [^11C]mirtazepin binding: 35%
[3]; 1 mg/kg
  reduction of [^11C]mirtazepin binding: failed to inhibit the binding further
[4]
  decline of VT of [^11C]yohimbine: greater decline of the value of VT than the higher dose of 0.7 mg/kg

## COC1(C2=NCCN2)COc2ccccc2O1 (stereo not shown) [[^3H]RX821002]
[5]; ref Ribas et al.[7]
  Kd: 0.57 nM
[5]; ref Ribas et al.[68]
  Kd: 0.5 nM

## COC(=O)[C@@H]1[C@H]2C[C@H]3c4[nH]c5ccccc5c4CCN3C[C@@H]2CC[C@@H]1O [[^3H]yohimbine]
[6]; ref Brown et al.[44]
  Kd: 5.2 nM
[6]; ref Brown et al.[45]
  Kd: 5.3 nM
[7]; mg^2+ 0 mM
  Kd: […]
[7]; mg^2+ 10 mM
  Kd: […]

## [11CH3]OC(=O)[C@@H]1[C@H]2C[C@H]3c4[nH]c5ccccc5c4CCN3C[C@@H]2CC[C@@H]1O [[^11C]yohimbine]
[9]
  fraction bound to plasma proteins: 82%
[10]; CEREB cerebellum
  Volumes of Distribution, VT, BASE: […]
  Volumes of Distribution, VT, COLD: […]
[10]; CP caudate putamen
  Volumes of Distribution, VT, BASE: […]
  Volumes of Distribution, VT, COLD: […]
[10]; HIPP hippocampus
  Volumes of Distribution, VT, BASE: […]
  Volumes of Distribution, VT, COLD: […]
[10]; HYP hypothalamus
  Volumes of Distribution, VT, BASE: […]
  Volumes of Distribution, VT, COLD: […]
[10]; MC motor cortex
  Volumes of Distribution, VT, BASE: […]
  Volumes of Distribution, VT, COLD: […]
[10]; OLF olfactory bulb
  Volumes of Distribution, VT, BASE: […]
  Volumes of Distribution, VT, COLD: […]
[10]; PFC prefrontal cortex
  Volumes of Distribution, VT, BASE: […]
  Volumes of Distribution, VT, COLD: […]
[10]; SSC somatosensory cortex
  Volumes of Distribution, VT, BASE: […]
  Volumes of Distribution, VT, COLD: […]
[10]; THAL thalamus
  Volumes of Distribution, VT, BASE: […]
  Volumes of Distribution, VT, COLD: […]
[10]; cerebellum
  time of peak uptake post-injection: […]
[10]; corresponding to K1 for a vascular volume of 0.02 ml/cm^3
  rate of escape: […]
[10]; other brain regions
  time of peak accumulation post-injection: […]
[11]; data from two rats
  radioactive metabolites in plasma: no radioactive metabolites

## CC(N)Cc1ccccc1 (stereo not shown) [amphetamine]
[11]; amphetamine 2 mg/kg challenge
  change of VND(b) and fP of [^11C]yohimbine: did not change
